The subject of assay [1] is NCI-H226 cells. The assay can be described thus: Proliferation and cell viability assay, CellTiter-Glo 2.0 (CTG). The settings on record: 144 hrs. It counts as cell-based, human. The procedure:
(§1) Cell proliferation of a TEAD dependent NF2-null mesothelioma cell line, NCI-H226 was assayed using two different protocols. Results were confirmed in two different TEAD-non-dependent lung cancer cell lines, H23 and H28, were used as non-responsive controls, as indicated:
a) CellTiter-Glo® 2.0 (Promega #G9243). The effect of the TEAD inhibitors disclosed herein on cell proliferation was determined in TEAD1-genetically dependent cell line NCI-H226 (responder cell line) and TEAD-independent cell lines (NCI-H23, HEK293T), as non-responder, negative control. Cells were seeded in 96-well plates (Thermo Scientific #167008) in growth media (RPMI-1640, Gibco #61870-010) for NCI-H226 and NCI-H23 or DMEM (Gibco #31966-021, HEK293T) with […] Heat Inactivated Fetal Bovine Serum (Gibco 10500-064) at 800 (NCI-H226 and HEK-293T) or 2000 (NCI-H23) cells per well at 37° C., […], humidified incubator; 24 hours later, fresh growth media containing test compound or DMSO vehicle was added and incubated with the cells for 144 hrs. TEAD inhibitor stocks were made at a 1000× fold excess in DMSO, and a dose response test compound dose range of 10,000 to 0.1 nM was used. Each treatment was carried out in triplicate. After 144 hrs of treatment, relative cell viability numbers were determined using the CellTiter-Glo 2.0 assay following the manufacturer's instructions. Test plates and CellTiter-Glo 2.0 reagent were allowed to equilibrate to room temperature. CellTiter-Glo 2.0 reagent was added at 1:1 reagent to media ratio to the 96-well cell plates, plates were placed on a plate shaker for 2 minutes and then incubated at room temperature for a further 10 minutes to allow complete cell lysis to occur. The mix was then transferred to white, 96-well luminometer assay plates (Greiner Bio One #655075). Luminescence was quantified using a CLARIOStar Plus multi-mode plate reader (BMG Labtech) in luminescence detection mode with the recommended settings (ultra-Glo pre-set: emission 545-50 nm with autofocus and enhanced dynamic range on). Relative cell density was expressed as a function of inhibitor concentration, with respect to DMSO-only control wells. Data where plotted using GraphPad Prism and IC50 values for the biological effect were calculated using the EC50 non-linear fit function using a sigmoidal, 4-parameter logistic, least squares fit with no constraints.
(§2) For IC50 and EC50 data “A” indicates a value of less than 0.2 μM; the symbol “B” indicates a value in the range of from 0.2 μM up to 1 μM; and the symbol “C” indicates a value of greater than 1 μM. ND: no data.
For orientation: ATP-based viability assays read luminescence as a measure of living cells.

For assay [2], the system named is NCI-H226 cells. The assay can be described thus: Proliferation and cell viability assay, Cell Titer One. It counts as cell-based, human. The settings on record: Cell Titer One assay, 6 days. The procedure: as §1
b) Cell Titer One (Promega, #G3582). The effect of the TEAD inhibitors disclosed herein on cell proliferation was also determined using the Promega Substrate Cell Titer Aqueous One Solution Reagent. The TEAD inhibitors were evaluated for the effects on cell proliferation responder (H226) and non-responder negative control cancer cell lines (CAMA1, H28), as well as non-transformed normal human cells (HUVEC, NHDF). Dissociated cells were resuspend in media (depending on cell line, either in DMEM, RPMI, or EMEM all with 10% FBS, with gentamicin as an antibiotic). Cells were seeded at 100 μL/well at 750 cells per well in 96-well plates and allowed to settle and attach. After an incubation of 24 hrs (37° C., 5% CO2, humidified incubator), 100 μL of test compound-containing media was added. A dilution series of 2000× concentrated stock of test compounds was prepared in DMSO, for final concentrations from 0.1 to 10,000 nM. After addition of test compound-containing media, cells were incubated for 6 days at 37° C., 5% CO2, humidified incubators). To measure cell density, 20 μL of Promega Substrate Cell Titer 96 Aqueous One Solution Reagent (Promega, #G3582) to each well was added according to the manufacturer's instructions. Plates were incubated at 37° C. for usually 3-8 hrs, to reach in the control cells (without compound) an OD of 1.5 at 490 nm. The OD was measured using Vmax [Molecular Devices] spectrophotometer plate reader. Media only-wells were used as background controls and cell densities normalized to DMSO vehicle control. EC50 were taken as the concentration achieving 50% of maximal growth inhibition.
as §2

Setting [3] is: Homo sapiens, NCI-H226, responder cell line.

This is an account of results in patent US20260317304A1, “TEAD INHIBITORS AND METHODS OF USE” (Sporos BioDiscovery, Inc., priority 2022, published 2026).

With `Cn1cnc(-c2cc(C3(C)NC(=O)NC3=O)ccc2Nc2ccc(C(F)(F)F)cc2)c1` (racemic) [Compound 9, 5-methyl-5-(3-(1-methyl-1H-imidazol-4-yl)-4-((4-(trifluoromethyl)phenyl)amino)phenyl) imidazolidine-2,4-dione], the concentration for a half-maximal effect (EC50) in the assay on NCI-H226 cells [1] (setting [3]) is less than 0.2 µM. Moreover, the concentration for half-maximal inhibition (IC50) with NCI-H226 cells [2] (Homo sapiens, NCI-H226, 144 h) was less than 0.2 µM.

With `Cn1nnc(-c2cc(C3(C)CCNC3=O)ccc2Nc2ccc(C(F)(F)F)cc2)n1` (racemic) [Compound 11, 3-methyl-3-(3-(2-methyl-2H-tetrazol-5-yl)-4-((4-(trifluoromethyl)phenyl)amino)phenyl) pyrrolidin-2-one], in the assay on NCI-H226 cells [1] (setting [3]), the EC50 is less than 0.2 µM. The molecule further yielded an IC50 with NCI-H226 cells [2] (Homo sapiens, NCI-H226, 144 h) of less than 0.2 µM.

`Cn1cnc(-c2cc(C3(C)C(=O)CNC3=O)ccc2Nc2ccc(C(F)(F)F)cc2)c1` (racemic) [Compound 16, 3-methyl-3-(3-(1-methyl-1H-imidazol-4-yl)-4-((4-(trifluoromethyl)phenyl)amino)phenyl) pyrrolidine-2,4-dione]: the EC50 in the assay on NCI-H226 cells [1] (setting [3]) was less than 0.2 µM.

The molecule `Cn1cnc(-c2cc([C@@]3(C)CCNC3=O)ccc2Nc2ccc(C(F)(F)F)cc2)c1` (single isomer, unassigned) [Compound 6, 3-methyl-3-(3-(1-methyl-1H-imidazol-4-yl)-4-((4-(trifluoromethyl)phenyl)amino)phenyl)pyrrolidin-2-one] showed an EC50 with NCI-H226 cells [1] (responder cell line) of less than 0.2 µM. In the assay on NCI-H226 cells [2], this molecule registered an IC50 of 0.2 to 1 µM.

Molecule `Cc1nnc(-c2cc([C@@]3(C)CCNC3=O)ccc2Nc2ccc(C(F)(F)F)cc2)o1` (single isomer, unassigned) [Compound 7, 3-methyl-3-(3-(5-methyl-1,3,4-oxadiazol-2-yl)-4-((4-(trifluoromethyl)phenyl)amino)phenyl) pyrrolidin-2-one] returned an EC50 in the assay with NCI-H226 cells [1] (setting [3]) of 0.2 to 1 µM. Also, the IC50 in the assay with NCI-H226 cells [2] (Homo sapiens, NCI-H226, 144 h) is less than 0.2 µM.

`Cc1nnc(-c2cc(C3(C)CCNC3=O)ccc2Nc2ccc(C(F)(F)F)cc2)o1` (single isomer, unassigned) [Compound 8, 3-methyl-3-(3-(5-methyl-1,3,4-oxadiazol-2-yl)-4-((4-(trifluoromethyl)phenyl)amino)phenyl) pyrrolidin-2-one] yielded an EC50 with NCI-H226 cells [1] (setting [3]) of less than 0.2 µM. Further, the IC50 in the assay on NCI-H226 cells [2] (Homo sapiens, NCI-H226, 144 h) was 0.2 to 1 µM.

Turning to `Cn1cnc(-c2cc([C@@]3(C)C(=O)CNC3=O)ccc2Nc2ccc(C(F)(F)F)cc2)c1` (stereo in doubt) [Compound 17, 3-methyl-3-(3-(1-methyl-1H-imidazol-4-yl)-4-((4-(trifluoromethyl)phenyl)amino)phenyl) pyrrolidine-2,4-dione], the EC50 in the assay on NCI-H226 cells [1] (setting [3]) is less than 0.2 µM.

In the assay on NCI-H226 cells [1] (responder cell line), `Cn1cnc(-c2cc([C@@]3(C)C(=O)CNC3=O)ccc2Nc2ccc(C(F)(F)F)cc2)c1` (stereo in doubt) [Compound 18, 3-methyl-3-(3-(1-methyl-1H-imidazol-4-yl)-4-((4-(trifluoromethyl)phenyl)amino)phenyl) pyrrolidine-2,4-dione] yielded an EC50 of less than 0.2 µM.

In turn, `Cn1cnc(-c2cc(C3(C)C(=O)NCC3O)ccc2Nc2ccc(C(F)(F)F)cc2)c1` (centres unmarked) [Compound 19, 4-hydroxy-3-methyl-3-(3-(1-methyl-1H-imidazol-4-yl)-4-((4-(trifluoromethyl)phenyl)amino)phenyl) pyrrolidin-2-one] yielded an EC50 with NCI-H226 cells [1] (setting [3]) of 0.2 to 1 µM.

`Cn1cnc(-c2cc(C3(C)CCNC3=O)ccc2Nc2cccc(C(F)(F)F)c2)c1` (centres unmarked) [Compound 22, 3-methyl-3-(3-(1-methyl-1H-imidazol-4-yl)-4-((3-(trifluoromethyl)phenyl)amino)phenyl) pyrrolidin-2-one] came in with an EC50 in the assay with NCI-H226 cells [1] (setting [3]) of less than 0.2 µM.

Turning to `CC(=O)c1ccc(Nc2ccc(C(F)(F)F)cc2)c(-c2cn(C)cn2)c1` [Compound 23, 1-(3-(1-methyl-1H-imidazol-4-yl)-4-((4-(trifluoromethyl)phenyl)amino)phenyl) ethan-1-one], the EC50 in the assay on NCI-H226 cells [1] (setting [3]) is less than 0.2 µM.

`CC1(c2ccc(Nc3ccc(C(F)(F)F)cc3)c(Br)c2)CCNC1=O` (centres unmarked) [Compound 24] yielded an EC50 in the assay on NCI-H226 cells [1] (setting [3]) of less than 0.2 µM.

One may read the EC50 as the concentration at which the effect is half-maximal. The IC50 is the point on the concentration scale where inhibition reaches its midpoint. A low value points to inhibition by little substance.
